# Results reported in patent US20230147942A1, “PHARMACEUTICAL COMPOSITION COMPRISING NEW LACTOBACILLUS PLANTARUM KC3 STRAIN AND LEONURUS JAPONICUS EXTRACT AS ACTIVE INGREDIENTS FOR PREVENTING OR TREATING RESPIRATORY DISEASE AND USE THEREOF” (KT&G CORPORATION, priority 2020, published 2023).
# Where a SMILES comes first, the peptide text is derived from it. Bridges are numbered along the chain shown (N, C = ends). [ ]: non-standard residue; d: D form. The star is where a group is joined. Ileψ(thiazoline)Cys = CC[C@H](C)[C@H](N)C1=N[C@H](C(=O)*)CS1; dOrn = NCCC[C@@H](N)C(=O)O
# Test system: Lactobacillus plantarum KC3
# Test: Antibiotic susceptibility of strain (antibiotic strips on LSM solid medium)
# Assay type: cell-based
# Details: 37° C., 24 hours
# Description: In order to confirm antibiotics resistance level of the new lactic acid bacteria from the of the Lactobacillus plantarum KC3 the present disclosure, an experiment was performed as follows by applying the method described in the document
# To measure the antibiotics resistance level of the strain, an MIC test was carried out. Lactic acid bacteria that were inoculated into an MRS medium (DF0881-17-5, Difco) and cultured at 37° C. for 18 hours were spread on an LSM solid medium (90% iso-sensitest broth (CM0473, Oxoid), 10% MRS medium (DF0881-17-5, Difco), and 1.5% agar (214010, Difco)). Strips for each type of antibiotics, such as Amikacin (92018, Liofilchem srl), Gentamycin (92009, Liofilchem srl), Kanamycin (92034, Liofilchem srl), Streptomycin (92112, Liofilchem srl), Penicillin-G (92102, Liofilchem srl), Oxacillin (92015, Liofilchem srl), Ampicillin (920030, Liofilchem srl), Bacitracin (92019, Liofilchem srl), Rifampicin (92001, Liofilchem srl), Polymyxin B (92004, Liofilchem srl), Chloramphenico 1(92075, Liofilchem srl), Vancomycin (92057, Liofilchem srl), and the like, were put on the medium, and the bacteria were grown at 37° C. for 24 hours.
# In Table 4, R indicates resistance and represents that the size of an inhibition zone is about 0 mm; IS indicates mediate resistance and represents that the size of an inhibition zone is in a range of about 1 mm to about 5 mm; and S indicates susceptibility and represents that the size of an inhibition zone is greater than about 5 mm.
Compound,Antibiotic resistance (class),"Antibiotic resistance, size of inhibition zone [mm]"
O=C(N[C@H](CO)[C@H](O)c1ccc([N+](=O)[O-])cc1)C(Cl)Cl [Chloramphenicol],S (S indicates susceptibility and represents that the size of an inhibition zone is greater than about 5 mm),10
[H]/N=C(/N)N[C@H]1[C@H](O)[C@@H](O)[C@H](O[C@@H]2O[C@@H](C)[C@](O)(C=O)[C@H]2O[C@@H]2O[C@@H](CO)[C@H](O)[C@@H](O)[C@@H]2NC)[C@@H](N/C(N)=N\[H])[C@@H]1O [Streptomycin],R (R indicates resistance and represents that the size of an inhibition zone is about 0 mm),0
CC1(C)S[C@@H]2[C@H](NC(=O)[C@H](N)c3ccccc3)C(=O)N2[C@H]1C(=O)O [Ampicillin],S (S indicates susceptibility and represents that the size of an inhibition zone is greater than about 5 mm),14
Polymyxin B,R (R indicates resistance and represents that the size of an inhibition zone is about 0 mm),0
Cc1onc(-c2ccccc2)c1C(=O)N[C@@H]1C(=O)N2[C@@H]1SC(C)(C)[C@@H]2C(=O)O [Oxacillin],IS (IS indicates mediate resistance and represents that the size of an inhibition zone is in a range of about 1 mm to about 5 mm),2
NCC[C@H](O)C(=O)N[C@@H]1C[C@H](N)[C@@H](O[C@H]2O[C@H](CN)[C@@H](O)[C@H](O)[C@H]2O)[C@H](O)[C@H]1O[C@H]1O[C@H](CO)[C@@H](O)[C@H](N)[C@H]1O [Amikacin],IS (IS indicates mediate resistance and represents that the size of an inhibition zone is in a range of about 1 mm to about 5 mm),1
CC[C@H](C)[C@H](N)C1=N[C@H](C(=O)N[C@@H](CC(C)C)C(=O)N[C@H](CCC(=O)O)C(=O)N[C@H](C(=O)N[C@H]2CCCCNC(=O)[C@H](CC(N)=O)NC(=O)[C@@H](CC(=O)O)NC(=O)[C@H](Cc3cnc[nH]3)NC(=O)[C@@H](Cc3ccccc3)NC(=O)[C@H]([C@@H](C)CC)NC(=O)[C@@H](CCCN)NC2=O)[C@@H](C)CC)CS1 [Bacitracin] ({Ileψ(thiazoline)Cys}-L[dE]IK[dOrn]I[dF]H[dD]N; lactam 4-C),S (S indicates susceptibility and represents that the size of an inhibition zone is greater than about 5 mm),7
CCC[C@@H]1C[C@@H](C(=O)N[C@@H]([C@H]2O[C@H](SC)[C@H](O)[C@@H](O)[C@H]2O)[C@@H](C)O)N(C)C1 [Lincomycin],S (S indicates susceptibility and represents that the size of an inhibition zone is greater than about 5 mm),10
Neomycin,IS (IS indicates mediate resistance and represents that the size of an inhibition zone is in a range of about 1 mm to about 5 mm),3
CO[C@@H]1[C@@H](OC(N)=O)[C@@H](O)[C@H](Oc2ccc3c(O)c(NC(=O)c4ccc(O)c(CC=C(C)C)c4)c(=O)oc3c2C)OC1(C)C [Novabiocin],S (S indicates susceptibility and represents that the size of an inhibition zone is greater than about 5 mm),7
CC1(C)S[C@@H]2[C@H](NC(=O)Cc3ccccc3)C(=O)N2[C@H]1C(=O)O [Penicillin-G],IS (IS indicates mediate resistance and represents that the size of an inhibition zone is in a range of about 1 mm to about 5 mm),5
NC[C@H]1O[C@H](O[C@H]2[C@H](O)[C@@H](O[C@H]3O[C@H](CO)[C@@H](O)[C@H](N)[C@H]3O)[C@H](N)C[C@@H]2N)[C@H](O)[C@@H](O)[C@@H]1O [Kanamycin],R (R indicates resistance and represents that the size of an inhibition zone is about 0 mm),0
Gentamycin,IS (IS indicates mediate resistance and represents that the size of an inhibition zone is in a range of about 1 mm to about 5 mm),3
CN[C@H](CC(C)C)C(=O)N[C@H]1C(=O)N[C@@H](CC(N)=O)C(=O)N[C@H]2C(=O)N[C@H]3C(=O)N[C@H](C(=O)N[C@H](C(=O)O)c4cc(O)cc(O)c4-c4cc3ccc4O)[C@H](O)c3ccc(c(Cl)c3)Oc3cc2cc(c3O[C@@H]2O[C@H](CO)[C@@H](O)[C@H](O)[C@H]2O[C@H]2C[C@](C)(N)[C@H](O)[C@H](C)O2)Oc2ccc(cc2Cl)[C@H]1O [Vancomycin],R (R indicates resistance and represents that the size of an inhibition zone is about 0 mm),0
CO[C@H]1/C=C/O[C@@]2(C)Oc3c(C)c(O)c4c(O)c(c(/C=N/N5CCN(C)CC5)c(O)c4c3C2=O)NC(=O)/C(C)=C\C=C\[C@H](C)[C@H](O)[C@@H](C)[C@@H](O)[C@@H](C)[C@H](OC(C)=O)[C@@H]1C [Rifampicin],S (S indicates susceptibility and represents that the size of an inhibition zone is greater than about 5 mm),7
